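Tested at 5 concentrations; 48 h exposure; 96-well plates; endpoints linearly interpolated, else capped at highest concentration. GI50 is the concentration that inhibits growth by half.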 The source made the active and inactive calls. No stated cut-off is given here; in the data, active = GI50 up to about 1.1 µM and inactive = higher.
Key:
Assay in all cases: inhibition of tumour cell growth, NCI panel, 48 h
[1] = tested on: MOLT-4
[2] = tested on: COLO 205
[3] = tested on: SK-MEL-2
[4] = tested on: HCT-15
[5] = tested on: DU-145
[6] = tested on: U-251
[7] = tested on: SK-MEL-28
[8] = tested on: BT-549
[9] = tested on: K562
[10] = tested on: MDA-MB-231
[11] = tested on: EKVX
[12] = tested on: IGROV-1
[13] = tested on: SW-620
[14] = tested on: MDA-N
[15] = tested on: CAKI-1
[16] = tested on: T47D
[17] = tested on: NCI-H23
[18] = tested on: OVCAR-8
[19] = tested on: HOP-62
[20] = tested on: HCC 2998

Compound	GI50 [1]	GI50 [2]	GI50 [3]	GI50 [4]	GI50 [5]	GI50 [6]	GI50 [7]	GI50 [8]	GI50 [9]	GI50 [10]	GI50 [11]	GI50 [12]	GI50 [13]	GI50 [14]	GI50 [15]	GI50 [16]	GI50 [17]	GI50 [18]	GI50 [19]	GI50 [20]
O=C(O)CCC(=O)c1ccc2sc3ccccc3c2c1	> 100 µM (inactive)	> 100 µM (inactive)	> 100 µM (inactive)	> 100 µM	> 100 µM (inactive)	> 100 µM (inactive)	> 100 µM (inactive)	> 100 µM (inactive)	> 100 µM (inactive)	> 100 µM (inactive)	> 100 µM (inactive)	> 100 µM (inactive)	> 100 µM (inactive)	> 100 µM (inactive)	> 100 µM (inactive)	> 100 µM (inactive)	> 100 µM (inactive)	> 100 µM (inactive)	> 100 µM (inactive)	
S=C1SCN(C2CCCCCCCCCCC2)CN1C1CCCCCCCCCCC1	46.1 µM (inactive)	> 100 µM (inactive)	> 100 µM (inactive)	> 100 µM	> 100 µM (inactive)	> 100 µM (inactive)	> 100 µM (inactive)	> 100 µM (inactive)	> 100 µM (inactive)	> 100 µM (inactive)	> 100 µM (inactive)	> 100 µM (inactive)	> 100 µM (inactive)	> 100 µM (inactive)	> 100 µM (inactive)	> 100 µM (inactive)	> 100 µM (inactive)	> 100 µM (inactive)	67.6 µM (inactive)	
CC(C)Oc1cc(O)c2c(c1)OCC=C2CCC(=O)O	23.8 µM (inactive)	16.2 µM (inactive)	26.8 µM (inactive)	23.2 µM	52.5 µM (inactive)	67.1 µM (inactive)	36 µM (inactive)	31.3 µM (inactive)	28.4 µM (inactive)	36.8 µM (inactive)	17.3 µM (inactive)	35.7 µM (inactive)	27.8 µM (inactive)	21.7 µM (inactive)	37.2 µM (inactive)	39.3 µM (inactive)	37.2 µM (inactive)	36.1 µM (inactive)	30.5 µM (inactive)	
Cn1c(S)nnc1-c1csc(-c2ccc(Cl)cc2)n1	55.8 µM (inactive)	> 100 µM (inactive)		53.8 µM		> 10 µM (inactive)	44.6 µM (inactive)	22.1 µM (inactive)	> 100 µM (inactive)	24 µM (inactive)	30.7 µM (inactive)	16 µM (inactive)	32.6 µM (inactive)	61 µM (inactive)	23.4 µM (inactive)	35.3 µM (inactive)	15 µM (inactive)	21.8 µM (inactive)	15.4 µM (inactive)	> 100 µM (inactive)
CC1C2CC(C/C2=N/O)C1(C)C (stereo not drawn)	> 100 µM (inactive)	> 100 µM (inactive)			> 100 µM (inactive)	> 100 µM (inactive)	> 100 µM (inactive)	> 100 µM (inactive)	> 100 µM (inactive)	> 100 µM (inactive)	> 100 µM (inactive)	> 100 µM (inactive)	> 100 µM (inactive)	> 100 µM (inactive)	> 100 µM (inactive)	> 100 µM (inactive)	> 100 µM (inactive)	> 100 µM (inactive)	> 100 µM (inactive)	> 100 µM (inactive)
CCCCN(CCCC)C(=C(C(Cl)=C(Cl)Cl)[N+](=O)[O-])N(CCCC)CCCC		> 100 µM (inactive)	80.2 µM (inactive)	98.6 µM	> 100 µM (inactive)	45.9 µM (inactive)	> 100 µM (inactive)	> 100 µM (inactive)	0.0119 µM (active)	65.2 µM (inactive)	67.5 µM (inactive)			> 100 µM (inactive)	> 100 µM (inactive)	73.8 µM (inactive)	82.2 µM (inactive)		> 100 µM (inactive)	
C(=C/CCCN1O[C@@H](CCCCCCCCc2cccnc2)[C@H]2CCC[C@H]21)/CCCCCCCCCc1cccnc1	21.7 µM (inactive)	14.9 µM (inactive)	22.4 µM (inactive)	24.8 µM	32.4 µM (inactive)	15.7 µM (inactive)	21.3 µM (inactive)	33 µM (inactive)	11.1 µM (inactive)	17.9 µM (inactive)	4.48 µM (inactive)	30.5 µM (inactive)	31.3 µM (inactive)	24.1 µM (inactive)	13.5 µM (inactive)	20.7 µM (inactive)	16.6 µM (inactive)	31.6 µM (inactive)	20.8 µM (inactive)	
NC(=S)SC1=NC(=O)C2(NN1)c1ccccc1-c1ccccc12		> 10 µM (inactive)		> 10 µM	> 10 µM (inactive)		> 10 µM (inactive)	> 10 µM (inactive)		> 10 µM (inactive)	6.58 µM (inactive)	> 10 µM (inactive)	> 10 µM (inactive)	> 10 µM (inactive)	> 10 µM (inactive)	1.67 µM (inactive)	> 10 µM (inactive)	> 10 µM (inactive)	> 10 µM (inactive)	> 10 µM (inactive)

From ChEMBL document CHEMBL1201862, “PubChem BioAssay data set” (2004)
